In ChEMBL document CHEMBL1157539, “Thousands of chemical starting points for antimalarial lead identification” (Nature, 2010):
Counter-ions that a name gives are not always drawn.

Tested on: Plasmodium falciparum
Assay: GSK_TCMDC: Inhibition of Plasmodium falciparum 3D7 in whole erythrocytes, using parasite LDH activity as an index of growth.
Assay type: functional, organism-based
Conditions: Plasmodium falciparum, 3D7

Compound	XC50
O=C(/C=C/c1ccc(Cl)c(Cl)c1)NCCCCCN1CCCC(CNC(=O)Nc2ccc(C(F)(F)F)cc2)C1 (centres undefined)	668 nM
Nc1ncc(-c2cn[nH]c2)cc1-c1nc2cc(Cl)cnc2[nH]1	915 nM
CCNC(C)(C)CN(Cc1ccc(-c2ccc(C(F)(F)F)cc2)cc1)C(=O)Cn1c(SCc2ccc(F)cc2)nc(=O)c2c1CCC2	991 nM
CCN(CC)CCNC(=O)c1ccc(NC(=O)c2cc3c(C)nn(-c4ccc(Cl)cc4)c3s2)cc1	253 nM
CCCCc1cc(NCC)nc(Nc2ccc(OC)cc2)n1	1180 nM
COc1cccc(C(=O)Nc2ccc(Nc3nc(C)cc(N4CCCCC4)n3)cc2)c1OC	1020 nM
Cc1ccc(C)c(CC(=O)N2CCC(n3c(C)nc4ccc(F)cc43)CC2)c1	193 nM
CC(C)(C)c1ccc(CN2CCC(CNC(=O)c3cc(-c4cccc(C(F)(F)F)c4)cs3)C2)cc1 (centres undefined)	1030 nM
Clc1ccc(CNc2ccnc(NCc3cccnc3N3CCCC3)n2)c(Cl)c1	1170 nM
NCC1CCCN1Cc1ccc(-c2cccc(-c3nc4cc(F)ccc4[nH]3)c2)cc1 (centres undefined)	751 nM
N#Cc1cccc(NC(=O)Nc2cccc(-c3ccc(-c4nc5cc(C(F)(F)F)ccc5[nH]4)cc3)c2)c1	247 nM
CCCCCCCCCC(=O)NCC1CC(Br)=NO1 (centres undefined)	1050 nM
Cc1cc(CNC(c2ccccc2)C2CCC2)cc(C)c1O (centres undefined)	890 nM
Cc1ccc(O)cc1Nc1ccnc2cc(-c3csc(CN(C)CCN(C)C)n3)ccc12	789 nM
CC(=O)Nc1ccc(C(=O)Nc2ccc(-c3cccc(-c4nc5cccc(C)c5[nH]4)c3)cc2)cn1	265 nM
Cc1cccc2nc(-c3ccc(-c4cccc(C(=O)NCCc5cn(C)cn5)c4)s3)[nH]c12	877 nM
Oc1ccc(CCNc2nc(NCc3ccccc3-c3ccc(C(F)(F)F)cc3)nc(NC3CCNCC3)n2)cc1	924 nM
O=C(Cn1c(CCc2cccc(F)c2F)nc(=O)c2ccccc21)N(Cc1ccc(-c2ccc(C(F)(F)F)cc2)cc1)C1CCN(C2CCSCC2)CC1	856 nM
Cc1cc(C(=O)Nc2ccc3c(c2)CCN3C2CCN(Cc3cccc4cc[nH]c34)C2)no1 (centres undefined)	189 nM
O=C(Nc1cccc(-c2csc(-c3nc4ccccc4[nH]3)c2)c1)c1ccncc1	256 nM
c1nc(CCNc2nc(Nc3ccc4c(c3)OCO4)nc(NC3CCCC3)n2)c[nH]1	1150 nM
Cc1[nH]n(-c2cccc(C(F)(F)F)c2)c(=O)c1-c1ccc(Cl)cc1	856 nM
O=c1[nH]ccc2nc(N[C@@H]3CCCNC3)nc(Nc3ccc(S(=O)(=O)N4CCOCC4)cc3)c12	742 nM

Compound	XC50
N#Cc1cccc(NC(=O)Nc2ccc3c(c2)CCN(C2CCC2)CC3)c1	843 nM
C1=C(c2c[nH]c3ccccc23)CCN(Cc2ccccc2)C1	1040 nM
CCN(CCCN1CCCCC1)c1cc(C)nc(Nc2ccc(OC)cc2)n1	621 nM
CC(C)N1CCC(NC(=O)N2CCCN(c3ncnc4cc(-c5ccc(Cl)cc5)sc34)CC2)CC1	1940 nM
CCNc1cc(C(=O)N[C@@H](Cc2ccccc2)[C@H](O)CNC(C)C)cc(N2CC(c3ccccc3)CCS2(=O)=O)c1 (some centres undefined)	412 nM
COc1cccc(CN2CCCN(Cc3cccc(NC(=O)c4ccc(-c5ccccc5)cc4)c3)CC2)c1	244 nM
Cn1cncc1C(=O)Nc1cccc(-c2cccc(-c3nc4cc(F)ccc4[nH]3)c2)c1	493 nM
O=C(/C=C/c1ccc(Cl)c(Cl)c1)NCCCCCCN1CCN(C(=O)Nc2ccc(Cl)c(C(F)(F)F)c2)CC1	526 nM
COC(=O)c1cccc(CNCc2ccc(-c3cccc(-c4nc5cc(C(F)(F)F)ccc5[nH]4)c3)cc2)c1	156 nM
Cc1ccc2[nH]c(/C=C/c3cccc4cc[nH]c34)nc2c1	1180 nM
CC(C)C[C@H](NC(=O)c1cc2cc(OCCN3CCNCC3)ccc2o1)C(=O)NC1CC[C@@H](C)N(C(=O)Nc2ccc(Cl)cc2)CC1=O (some centres undefined)	382 nM
O=C(Nc1ccc(F)c(F)c1)c1ccc(CN2CCCN(Cc3cccc(F)c3)CC2)cc1	1120 nM
CCCc1cc(C)ccc1OCCCON1C(N)=NC(N)=NC1(C)C	3.2 nM
Cc1cccc(C)c1CNc1ccnc2cc(C#N)ccc12	684 nM
COc1ccc(C=NN=c2cc(C)[nH]c3ccccc23)cc1OC	859 nM
CC(=O)N(Cc1cccc(-c2ccc(CNCCc3ccccc3)cc2)c1)C1CCN(Cc2ccccc2)CC1	691 nM
Cc1cccc(NC(=O)Nc2ccc(I)c(OCCN(C)C)c2)c1C	725 nM
COc1ccccc1CCNc1ncnc2c1[nH]c1ccc(F)cc12	837 nM
Clc1ccc(-c2cc(-c3csc(NCCN4CCCCC4)n3)on2)cc1	989 nM
Cc1cc(N[C@@H](CC(C)C)C(=O)NCCc2ccccc2)nc(NCCc2cccs2)n1	1200 nM
CCN(CCO)CCCC(C)Nc1ccnc2cc(Cl)ccc12 (centres undefined) [HYDROXYCHLOROQUINE SULFATE]	762 nM
Nc1cccc(CNCc2ccc(-c3ccc(-c4nc5cc(C(F)(F)F)ccc5[nH]4)s3)cc2)c1	438 nM
CN1CCCN(Cc2ccc(-c3cccc(NC(=O)c4cccc(C#N)c4)c3)cc2)CC1	651 nM

Compound	XC50
COc1ccc2ncc(C#N)c(CCN3CCC(NCc4ccc5c(c4)OCCO5)CC3)c2c1	910 nM
Cc1ccc(S(=O)(=O)n2nccc2-c2c(-c3ccc(Cl)cc3)noc2C)cc1	809 nM
CN1CCC(N2CCN(CCOc3cc(NC(=O)/C=C/c4ccccc4Cl)ccc3Br)CC2)CC1	360 nM
CC(=O)Nc1cccc(CN(Cc2ccc(-c3ccc(CNCc4cccnc4)cn3)cc2)C(=O)Cc2cccnc2)c1	820 nM
CCC[C@@H]([C@@H](CC(C)C)C(=O)N[C@@H](CCCCNC(=O)c1ccccn1)C(=O)Nc1nccs1)N(O)C=O	46.6 nM
Nc1nc2c(ncn2OC[C@H](CO)OCP(=O)(O)O)c(=O)[nH]1	341 nM
Nc1nc(N)c2c(ccc3c2ccn3Cc2ccc(Cl)cc2)n1	3.2 nM
CCNc1cc(C(=O)N[C@@H](Cc2ccccc2)[C@H](O)CNCc2cccc(OC)c2)c(OC)c(N2CCCCS2(=O)=O)c1	689 nM
Cc1cccc2nc(-c3cccc(-c4ccc(CNCCCN5CCCC5=O)cc4)c3)[nH]c12	956 nM
CN1CCN(c2ccnc3ccc(NC(=O)Nc4ccc5ccccc5c4)cc23)CC1	76.6 nM
CC(C)(C)c1ccc(CN2CCC(NC(=O)c3ccc(-c4cccc(F)c4)s3)CC2)cc1	1090 nM
Cc1cc(NC2CCCC2)nc(Nc2ccccc2)n1	985 nM
CCOC(=O)/C(=N\OC(C(=O)OC(C)(C)C)c1ccccc1)c1csc(NC(c2ccccc2)(c2ccccc2)c2ccccc2)n1 (centres undefined)	1110 nM
COc1ccc(Nc2cc(C)nc(NCc3ccc4c(c3)OCO4)n2)cc1	766 nM
CCOCc1cnc(C)nc1NCC(=O)c1c(C)[nH]c2cc(C)ccc12	1210 nM
COc1cccc(C(NC(=O)c2ccccc2)c2ccc3cccnc3c2O)c1 (centres undefined)	1080 nM
CCc1c(CCNCCCCCCNCCc2ccc([N+](=O)[O-])cc2)ccc(OC)c1OC	727 nM
N#Cc1ccc(-c2ccc(C(=O)NC3CCN(CCN4CCc5c(cccc5C(F)(F)F)C4)CC3)cc2)cc1	703 nM
COc1cc(C=C(C2=NC(=O)CS2)c2nc3cccnc3n2C)ccc1O	1000 nM
COc1cccc(NC(=O)Nc2ccc(-c3oc(C(=O)NCC(c4ccccc4)N(C)C)cc3-c3ccncc3)cc2)c1 (centres undefined)	1830 nM
Cc1cc(N[C@@H](CC(C)C)C(=O)NCCOc2ccccc2)nc(NCCc2ccc(F)cc2)n1	1290 nM
O=C(NCc1cc2c(cc1Cl)OCO2)c1ccc(CNC2CCN(Cc3ccccc3)CC2)cc1	831 nM
Cc1cccc2nc(-c3ccc(-c4ccc(NC(=O)C(C)CN(C)C)cc4)s3)[nH]c12 (centres undefined)	409 nM
